Reference: US20230017045A1, “PYRIDINE AND PYRIMIDINE CARBOXYLATE HERBICIDES AND METHODS OF USE THEREOF” (Dow AgroSciences LLC, priority 2017, published 2023)
Like-named read-outs stand apart in the source and are kept apart here.

Test system: test plant species
Test: Post-emergent herbicidal activity test (greenhouse, foliar spray, visual growth reduction)
Format: in vivo
Settings: post-emergence, 336 h, 140 g ai/ha
Method: Post-emergent Test: Seeds or nutlets of the desired test plant species were planted in Sun Gro Metro-Mix® 360 planting mixture, which typically has a pH of 6.0 to 6.8 and an organic matter content of about 30 percent, in plastic pots with a surface area of 64 square centimeters. In some aspects, to ensure good germination and healthy plants, a fungicide treatment and/or other chemical or physical treatment was applied. The plants were grown for 7-21 d in a greenhouse with an approximate 15 h photoperiod which was maintained at 23-29° C. during the day and 22-28° C. during the night. Nutrients and water were added on a regular basis and supplemental lighting was provided with overhead metal halide 1000-Watt lamps as necessary. Plants were used for testing when they reached the first or second true leaf stage. A weighed amount, determined by the highest rate to be tested, of each test compound was placed in a 25 mL glass vial and was dissolved in 4 mL of a 97:3 v/v mixture of acetone and DMSO to obtain concentrated stock solutions. […] The concentrated stock solutions obtained were diluted with 20 mL of an aqueous mixture containing acetone, water, isopropyl alcohol, DMSO, […] crop oil concentrate, and X-77 surfactant in a 48.5:39:10:1.5:1.0:0.02 v/v ratio to obtain spray solutions containing the application rate. Compound requirements are based upon a 12 mL application volume at a rate of 187 liters per hectare (L/ha). Formulated compounds were applied to the plant material with an overhead Mandel track sprayer equipped with […] nozzles calibrated to deliver 187 L/ha over an application area of 0.64 square meters at a spray height of 18 inches (43 cm) above the average plant canopy height. Control plants were sprayed in the same manner with the solvent blank. The treated plants and control plants were placed in a greenhouse as described above and watered by subirrigation to prevent wash-off of the test compounds. After 14 d, the condition of the test plants as compared with that of the nontreated and control plants was determined visually and scored on a scale of 0 to 100 percent where 0 corresponds to no injury and 100 corresponds to complete control. In the reporting of the results, Table A: Percent Growth Reduction Conversion Table was used.

[1] = ALOMY: blackgrass (Alopecurus myosuroides), 14 days after application, read-out: Visual Growth Reduction (%) 14 Days After Application, ALOMY
[2] = AMARE: redroot pigweed (Amaranthus retroflexus), 14 days after application, read-out: Visual Growth Reduction (%) 14 Days After Application, AMARE
[3] = AVEFA: wild oat (Avena fatua), 14 days after application, read-out: Visual Growth Reduction (%) 14 Days After Application, AVEFA
[4] = CHEAL: lambsquarters (Chenopodium album), 14 days after application, read-out: Visual Growth Reduction (%) 14 Days After Application, CHEAL
[5] = CIRAR: canada thistle (Cirsium arvense), 14 days after application, read-out: Visual Growth Reduction (%) 14 Days After Application, CIRAR
[6] = CYPES: yellow nutsedge (Cyperus esculentus), 14 days after application, read-out: Visual Growth Reduction (%) 14 Days After Application, CYPES
[7] = DIGSA: crabgrass (Digitaria sanguinalis), 14 days after application, read-out: Visual Growth Reduction (%) 14 Days After Application, DIGSA
[8] = ECHCG: barnyardgrass (Echinochloa crus-galli), 14 days after application, read-out: Visual Growth Reduction (%) 14 Days After Application, ECHCG
[9] = IPOHE: ivy-leaf morning glory (Ipomoea hederacea), 14 days after application, read-out: Visual Growth Reduction (%) 14 Days After Application, IPOHE
[10] = KCHSC: kochia (Bassia scoparia), 14 days after application, read-out: Visual Growth Reduction (%) 14 Days After Application, KCHSC
[11] = ORYSA: rice (Oryza sativa), 14 days after application, read-out: Visual Growth Reduction (%) 14 Days After Application, ORYSA
[12] = SETFA: giant foxtail (Setaria faberi), 14 days after application, read-out: Visual Growth Reduction (%) 14 Days After Application, SETFA
[13] = SORVU: grain sorghum (Sorghum vulgare), 14 days after application, read-out: Visual Growth Reduction (%) 14 Days After Application, SORVU
[14] = STEME: common chickweed (Stellaria media), 14 days after application, read-out: Visual Growth Reduction (%) 14 Days After Application, STEME
[15] = TRZAS: wheat, spring (Triticum aestivum), 14 days after application, read-out: Visual Growth Reduction (%) 14 Days After Application, TRZAS
[16] = blackgrass (Alopecurus myosuroides), 14 Days After Application, read-out: Visual Growth Reduction (%) ALOMY
[17] = canada thistle (Cirsium arvense), 14 Days After Application, read-out: Visual Growth Reduction (%) CIRAR
[18] = crabgrass (Digitaria sanguinalis), 14 Days After Application, read-out: Visual Growth Reduction (%) DIGSA
[19] = lambsquarters (Chenopodium album), 14 Days After Application, read-out: Visual Growth Reduction (%) CHEAL
[20] = redroot pigweed (Amaranthus retroflexus), 14 Days After Application, read-out: Visual Growth Reduction (%) AMARE
[21] = wild oat (Avena fatua), 14 Days After Application, read-out: Visual Growth Reduction (%) AVEFA
[22] = yellow nutsedge (Cyperus esculentus), 14 Days After Application, read-out: Visual Growth Reduction (%) CYPES

Row | Structure (SMILES) | pest or weed control at 140 g/ha [1] [%] | pest or weed control at 140 g/ha [2] [%] | pest or weed control at 140 g/ha [3] [%] | pest or weed control at 140 g/ha [4] [%] | pest or weed control at 140 g/ha [5] [%] | pest or weed control at 140 g/ha [6] [%] | pest or weed control at 140 g/ha [7] [%] | pest or weed control at 140 g/ha [8] [%] | pest or weed control at 140 g/ha [9] [%] | pest or weed control at 140 g/ha [10] [%] | pest or weed control at 140 g/ha [11] [%] | pest or weed control at 140 g/ha [12] [%] | pest or weed control at 140 g/ha [13] [%] | pest or weed control at 140 g/ha [14] [%] | pest or weed control at 140 g/ha [15] [%] | pest or weed control at 140 g/ha [16] [%] | pest or weed control at 140 g/ha [17] [%] | pest or weed control at 140 g/ha [18] [%] | pest or weed control at 140 g/ha [19] [%] | pest or weed control at 140 g/ha [20] [%] | other results
1 | COC(=O)c1nc(-c2ccc(OC(F)F)cc2Cl)ccc1Cl [F157, methyl 3-chloro-6-(2-chloro-4-(difluoromethoxy)phenyl)picolinate] | 0 to 29 | 95 to 100 | 45 to 59 | 85 to 94 | 85 to 94 | 0 to 29 | 85 to 94 | 85 to 94 | 95 to 100 | 85 to 94 | 0 to 29 | 85 to 94 | 95 to 100 | 0 to 29 | 60 to 74 |  |  |  |  |  | 
2 | COC(=O)c1nc(-c2ccc(C(F)(F)F)cc2Cl)ccc1Cl [F66, methyl 3-chloro-6-(2-chloro-4-(trifluoromethyl)phenyl)picolinate] | 45 to 59 | 95 to 100 | 60 to 74 | 85 to 94 | 95 to 100 | 0 to 29 | 95 to 100 | 95 to 100 | 95 to 100 | 60 to 74 | 45 to 59 | 95 to 100 | 85 to 94 | 0 to 29 |  |  |  |  |  |  | 
3 | COC(=O)c1nc(-c2ccc(C(F)(F)F)cc2)c(Cl)cc1Cl [F106, Methyl 3,5-dichloro-6-(4-(trifluoromethyl)phenyl)picolinate] | 0 to 29 | 45 to 59 | 0 to 29 | 30 to 44 | 0 to 29 | 0 to 29 | 45 to 59 | 0 to 29 | 45 to 59 | 0 to 29 | 0 to 29 | 0 to 29 | 30 to 44 | 0 to 29 | 0 to 29 |  |  |  |  |  | 
4 | COC(=O)c1nc(-c2ccc(OC(F)F)cc2OC)c(F)cc1Cl [F161 (F393)] | 0 to 29 | 95 to 100 | 75 to 84 | 85 to 94 | 85 to 94 | 0 to 29 | 45 to 59 |  |  |  |  |  |  |  |  |  |  |  |  |  | 
5 | COC(=O)c1nc(-c2ccc(C(F)(F)F)c(F)c2F)ccc1Cl [F110, Methyl 3-chloro-6-(2,3-difluoro-4-(trifluoromethyl)phenyl)picolinate] | 0 to 29 | 85 to 94 | 0 to 29 | 75 to 84 | 85 to 94 | 0 to 29 | 0 to 29 | 0 to 29 | 95 to 100 | 0 to 29 | 0 to 29 | 0 to 29 | 60 to 74 |  | 0 to 29 |  |  |  |  |  | 
6 | COC(=O)c1nc(-c2ccc(C3CC3)c(F)c2)ccc1Cl [F287, Methyl 3-chloro-6-(4-cyclopropyl-3-fluorophenyl) picolinate] |  |  |  |  |  |  |  | 0 to 29 | 60 to 74 | 0 to 29 | 0 to 29 | 0 to 29 | 0 to 29 | 0 to 29 | 0 to 29 | 0 to 29 | 0 to 29 | 0 to 29 | 0 to 29 | 0 to 29 | pest or weed control at 140 g/ha [21]: 0 to 29%; pest or weed control at 140 g/ha [22]: 0 to 29%
7 | COC(=O)c1nc(-c2ccc(C(F)F)c(F)c2OC)c(F)cc1Cl [F253, methyl 3-chloro-6-(4-(difluoromethyl)-3-fluoro-2-methoxyphenyl)-5-fluoropicolinate] |  |  |  |  |  |  |  | 60 to 74 | 95 to 100 | 95 to 100 | 0 to 29 | 0 to 29 | 45 to 59 | 0 to 29 | 0 to 29 | 0 to 29 | 95 to 100 | 0 to 29 | 95 to 100 | 95 to 100 | pest or weed control at 140 g/ha [21]: 0 to 29%; pest or weed control at 140 g/ha [22]: 0 to 29%
8 | COC(=O)c1nc(-c2ccc3c(c2OC)OC(F)(F)O3)ccc1Cl [F369, Methyl 3-chloro-6-(2,2-difluoro-4-methoxybenzo[d][1,3]dioxol-5-yl)picolinate] |  |  |  |  |  |  |  | 45 to 59 | 95 to 100 | 30 to 44 | 0 to 29 | 60 to 74 | 85 to 94 | 0 to 29 | 60 to 74 | 30 to 44 | 85 to 94 | 85 to 94 | 30 to 44 | 60 to 74 | pest or weed control at 140 g/ha [21]: 30 to 44%; pest or weed control at 140 g/ha [22]: 0 to 29%
9 | C=Cc1cc(-c2nc(C(=O)OC)c(Cl)cc2F)c(OC)c2c1OC(F)(F)O2 [F372, Methyl 3-chloro-6-(2,2-difluoro-4-methoxy-7-vinylbenzo[d][1,3]dioxol-5-yl)-5-fluoropicolinate] |  |  |  |  |  |  |  | 0 to 29 | 95 to 100 | 0 to 29 | 0 to 29 | 0 to 29 | 30 to 44 | 0 to 29 | 0 to 29 | 0 to 29 | 0 to 29 | 0 to 29 | 0 to 29 | 45 to 59 | pest or weed control at 140 g/ha [21]: 0 to 29%; pest or weed control at 140 g/ha [22]: 0 to 29%
